Measurements as given in patent publication US20240000872A1, “NOVEL BACTERIOPHAGE THAT LYSES ACINETOBACTER GENUS BACTERIA HAVING RESISTANCE TO ANTIBIOTICS” (priority 2020, published 2024).

Test system: Acinetobacter baumannii strains
Assay: Antibiotic susceptibility test (CLSI disk diffusion test method, read per CLSI 2016); on antibiotic susceptibility S/I/R: key: ‘S’ means susceptible; ‘I’ means intermediate; ‘R’ means resistant; on antibiotic susceptibility class: key: ‘S’ means susceptible; ‘I’ means intermediate; ‘R’ means resistant; on susceptibility category (S/I/R): key: ‘S’ means susceptible; ‘I’ means intermediate; ‘R’ means resistant
Type: cell-based
Design: antibiotic susceptibility test value / susceptibility test value (number given before S/I/R) / antibiotic susceptibility value: unit not given here

Substance: cortrimoxazole
- antibiotic susceptibility class (host strain YMC14/01/C29): R
- antibiotic susceptibility test value (host strain YMC14/01/C29): 320
- antibiotic susceptibility class (host strain YMC14/01/IP122): S
- antibiotic susceptibility test value (host strain YMC14/01/IP122): 20
- antibiotic susceptibility class (host strain YMC14/01/L8): R
- antibiotic susceptibility test value (host strain YMC14/01/L8): 320
- antibiotic susceptibility class (host strain YMC14/01/P31): R
- antibiotic susceptibility test value (host strain YMC14/01/P31): 160
- antibiotic susceptibility class (host strain YMC14/01/P117): R
- antibiotic susceptibility test value (host strain YMC14/01/P117): 160
- antibiotic susceptibility class (host strain YMC14/01/P224): R
- antibiotic susceptibility test value (host strain YMC14/01/P224): 320
- antibiotic susceptibility class (host strain YMC14/01/P727): R
- antibiotic susceptibility test value (host strain YMC14/01/P727): 320
- antibiotic susceptibility class (host strain YMC14/01/P728): R
- antibiotic susceptibility test value (host strain YMC14/01/P728): 160
- antibiotic susceptibility class (host strain YMC14/01/R130): R
- antibiotic susceptibility test value (host strain YMC14/01/R130): 320
- antibiotic susceptibility class (host strain YMC14/01/R160): R
- antibiotic susceptibility test value (host strain YMC14/01/R160): 320
- antibiotic susceptibility class (host strain YMC14/01/R198): R
- antibiotic susceptibility test value (host strain YMC14/01/R198): 320
- antibiotic susceptibility class (host strain YMC14/01/R257): R
- antibiotic susceptibility test value (host strain YMC14/01/R257): 320
- antibiotic susceptibility class (host strain YMC14/01/R270): R
- antibiotic susceptibility test value (host strain YMC14/01/R270): 320
- antibiotic susceptibility class (host strain YMC14/01/R324): R
- antibiotic susceptibility test value (host strain YMC14/01/R324): 160
- antibiotic susceptibility class (host strain YMC14/01/R443): R
- antibiotic susceptibility test value (host strain YMC14/01/R443): 320
- antibiotic susceptibility class (host strain YMC14/01/R451): R
- antibiotic susceptibility test value (host strain YMC14/01/R451): 320
- antibiotic susceptibility class (host strain YMC14/01/R560): R
- antibiotic susceptibility test value (host strain YMC14/01/R560): 160
- antibiotic susceptibility class (host strain YMC14/01/R617): R
- antibiotic susceptibility test value (host strain YMC14/01/R617): 320
- antibiotic susceptibility class (host strain YMC14/01/R671): R
- antibiotic susceptibility test value (host strain YMC14/01/R671): 320
- antibiotic susceptibility class (host strain YMC14/01/R732): R
- antibiotic susceptibility test value (host strain YMC14/01/R732): 320
- antibiotic susceptibility class (host strain YMC14/01/R767): R
- antibiotic susceptibility test value (host strain YMC14/01/R767): 160
- antibiotic susceptibility class (host strain YMC14/01/R904): S
- antibiotic susceptibility test value (host strain YMC14/01/R904): 20
- antibiotic susceptibility class (host strain YMC14/01/R905): R
- antibiotic susceptibility test value (host strain YMC14/01/R905): 320
- antibiotic susceptibility class (host strain YMC14/01/R921): S
- antibiotic susceptibility test value (host strain YMC14/01/R921): 40
- antibiotic susceptibility class (host strain YMC14/01/R941): R
- antibiotic susceptibility test value (host strain YMC14/01/R941): 320
- antibiotic susceptibility class (host strain YMC14/01/R958): R
- antibiotic susceptibility test value (host strain YMC14/01/R958): 320
- antibiotic susceptibility class (host strain YMC14/01/R1006): R
- antibiotic susceptibility test value (host strain YMC14/01/R1006): 320
- antibiotic susceptibility class (host strain YMC14/01/R1199): R
- antibiotic susceptibility test value (host strain YMC14/01/R1199): 160
- antibiotic susceptibility class (host strain YMC14/01/R1659): R
- antibiotic susceptibility test value (host strain YMC14/01/R1659): 320
- antibiotic susceptibility class (host strain YMC14/01/R1722): R
- antibiotic susceptibility test value (host strain YMC14/01/R1722): 320
- antibiotic susceptibility class (host strain YMC14/01/R1752): S
- antibiotic susceptibility test value (host strain YMC14/01/R1752): 20
- antibiotic susceptibility class (host strain YMC14/01/R2429): R
- antibiotic susceptibility test value (host strain YMC14/01/R2429): 160
- antibiotic susceptibility class (host strain YMC14/01/R2572): R
- antibiotic susceptibility test value (host strain YMC14/01/R2572): 320
- antibiotic susceptibility class (host strain YMC14/01/R2855): R
- antibiotic susceptibility test value (host strain YMC14/01/R2855): 320
- antibiotic susceptibility class (host strain YMC14/01/R2945): R
- antibiotic susceptibility test value (host strain YMC14/01/R2945): 160
- antibiotic susceptibility class (host strain YMC14/01/R3007): S
- antibiotic susceptibility test value (host strain YMC14/01/R3007): 20
- antibiotic susceptibility class (host strain YMC14/01/R3129): S
- antibiotic susceptibility test value (host strain YMC14/01/R3129): 20
- antibiotic susceptibility class (host strain YMC14/01/R3317): R
- antibiotic susceptibility test value (host strain YMC14/01/R3317): 160
- antibiotic susceptibility class (host strain YMC14/01/R3474): R
- antibiotic susceptibility test value (host strain YMC14/01/R3474): 160
- antibiotic susceptibility class (host strain YMC14/01/R3574): R
- antibiotic susceptibility test value (host strain YMC14/01/R3574): 160
- antibiotic susceptibility class (host strain YMC14/01/U313): R
- antibiotic susceptibility test value (host strain YMC14/01/U313): 320
- antibiotic susceptibility class (host strain YMC14/01/U318): R
- antibiotic susceptibility test value (host strain YMC14/01/U318): 320
- antibiotic susceptibility class (host strain YMC14/02/L18): R
- antibiotic susceptibility test value (host strain YMC14/02/L18): 160
- antibiotic susceptibility class (host strain YMC14/02/P47): R
- antibiotic susceptibility test value (host strain YMC14/02/P47): 320
- antibiotic susceptibility class (host strain YMC14/02/R1860): R
- antibiotic susceptibility test value (host strain YMC14/02/R1860): 320
- antibiotic susceptibility class (host strain YMC14/02/R2417): R
- antibiotic susceptibility test value (host strain YMC14/02/R2417): 320
- antibiotic susceptibility class (host strain YMC14/02/R2599): S
- antibiotic susceptibility test value (host strain YMC14/02/R2599): 20
- antibiotic susceptibility class (host strain YMC14/02/R2668): R
- antibiotic susceptibility test value (host strain YMC14/02/R2668): 320
- antibiotic susceptibility class (host strain YMC14/02/R2758): R
- antibiotic susceptibility test value (host strain YMC14/02/R2758): 320
- antibiotic susceptibility class (host strain YMC14/02/R2781): R
- antibiotic susceptibility test value (host strain YMC14/02/R2781): 160
- antibiotic susceptibility class (host strain YMC14/02/R3106): R
- antibiotic susceptibility test value (host strain YMC14/02/R3106): 320
- antibiotic susceptibility class (host strain YMC14/02/R3419): R
- antibiotic susceptibility test value (host strain YMC14/02/R3419): 320
- antibiotic susceptibility class (host strain YMC14/02/U1607): S
- antibiotic susceptibility test value (host strain YMC14/02/U1607): 20
- antibiotic susceptibility class (host strain YMC14/03/L9): R
- antibiotic susceptibility test value (host strain YMC14/03/L9): 160
- antibiotic susceptibility class (host strain YMC14/03/P471): S
- antibiotic susceptibility test value (host strain YMC14/03/P471): 20
- antibiotic susceptibility class (host strain YMC14/03/R122): S
- antibiotic susceptibility test value (host strain YMC14/03/R122): 20
- antibiotic susceptibility class (host strain YMC14/03/R217): R
- antibiotic susceptibility test value (host strain YMC14/03/R217): 160
- antibiotic susceptibility class (host strain YMC14/03/R380): R
- antibiotic susceptibility test value (host strain YMC14/03/R380): 320
- antibiotic susceptibility class (host strain YMC14/03/R618): S
- antibiotic susceptibility test value (host strain YMC14/03/R618): 20
- antibiotic susceptibility class (host strain YMC14/03/R2144): R
- antibiotic susceptibility test value (host strain YMC14/03/R2144): 160
- antibiotic susceptibility class (host strain YMC14/03/U4616): R
- antibiotic susceptibility test value (host strain YMC14/03/U4616): 160
- antibiotic susceptibility class (host strain YMC14/04/R1078): S
- antibiotic susceptibility test value (host strain YMC14/04/R1078): 20
- antibiotic susceptibility class (host strain YMC14/04/R1080): S
- antibiotic susceptibility test value (host strain YMC14/04/R1080): 20
- antibiotic susceptibility S/I/R (host strain YMC14/06/R2359): R
- antibiotic susceptibility value (host strain YMC14/06/R2359): 320
- susceptibility category (S/I/R) (host strain YMC14/06/R2359): R
- susceptibility test value (number given before S/I/R) (host strain YMC14/06/R2359): 320
- antibiotic susceptibility S/I/R (host strain YMC14/08/R1169): R
- antibiotic susceptibility value (host strain YMC14/08/R1169): 320
- susceptibility category (S/I/R) (host strain YMC14/08/R1169): R
- susceptibility test value (number given before S/I/R) (host strain YMC14/08/R1169): 320
- antibiotic susceptibility S/I/R (host strain YMC14/08/T90): R
- antibiotic susceptibility value (host strain YMC14/08/T90): 320
- susceptibility category (S/I/R) (host strain YMC14/08/T90): R
- susceptibility test value (number given before S/I/R) (host strain YMC14/08/T90): 320
- antibiotic susceptibility S/I/R (host strain YMC15/02/R436): R
- antibiotic susceptibility value (host strain YMC15/02/R436): 320
- susceptibility category (S/I/R) (host strain YMC15/02/R436): R
- susceptibility test value (number given before S/I/R) (host strain YMC15/02/R436): 320
- antibiotic susceptibility S/I/R (host strain YMC15/02/T28): R
- antibiotic susceptibility value (host strain YMC15/02/T28): 320
- susceptibility category (S/I/R) (host strain YMC15/02/T28): R
- susceptibility test value (number given before S/I/R) (host strain YMC15/02/T28): 320
- antibiotic susceptibility S/I/R (host strain YMC15/03/R1604): R
- antibiotic susceptibility value (host strain YMC15/03/R1604): 320
- susceptibility category (S/I/R) (host strain YMC15/03/R1604): R
- susceptibility test value (number given before S/I/R) (host strain YMC15/03/R1604): 320
- antibiotic susceptibility S/I/R (host strain YMC15/09/R1869): R
- antibiotic susceptibility value (host strain YMC15/09/R1869): 320
- susceptibility category (S/I/R) (host strain YMC15/09/R1869): R
- susceptibility test value (number given before S/I/R) (host strain YMC15/09/R1869): 320
- antibiotic susceptibility S/I/R (host strain YMC16/01/P11): R
- antibiotic susceptibility value (host strain YMC16/01/P11): 320
- susceptibility category (S/I/R) (host strain YMC16/01/P11): R
- susceptibility test value (number given before S/I/R) (host strain YMC16/01/P11): 320
- antibiotic susceptibility S/I/R (host strain YMC16/01/R123): R
- antibiotic susceptibility value (host strain YMC16/01/R123): 160
- susceptibility category (S/I/R) (host strain YMC16/01/R123): R
- susceptibility test value (number given before S/I/R) (host strain YMC16/01/R123): 160
- antibiotic susceptibility S/I/R (host strain YMC16/01/R198): R
- antibiotic susceptibility value (host strain YMC16/01/R198): 160
- susceptibility category (S/I/R) (host strain YMC16/01/R198): R
- susceptibility test value (number given before S/I/R) (host strain YMC16/01/R198): 160
- antibiotic susceptibility S/I/R (host strain YMC16/01/R353): R
